These results are taken from publication PMC4992826, “Male tarsi specific odorant-binding proteins in the diving beetle Cybister japonicus sharp” (Scientific Reports, 2016).

The target in experiment [1] is T1, CjapOBP2 (Cybister japonicus, UniProt A0A1Q1N694). The experiment can be described thus: Competitive fluorescence binding assay with 1-NPN as reporter. Particulars: protein 5 μM, 1-NPN 2 μM, competitor up to 16 μM. From the text:
(§1) To characterize the ligand-binding properties of the two OBPs, we performed fluorescence binding assays with several chemicals having different structures using N-phenyl-1-naphthylamine (1-NPN) as a fluorescent reporter. In the absence of any information about potential semiochemicals for this insect, as well as for related species, we selected some common plant volatiles, such as citral, coniferyl aldehyde, eugenol and 2-isobutyl-3-mthoxypyrazine, and structurally similar compounds. 1-NPN binds CjapOBP1 and CjapOBP2 with dissociation constants of 3.3 and 2.1 μM respectively (Fig. 5A). Among the ligands tested, we identified a single good ligand for each protein, citral for CjapOBP1 and coniferyl aldehyde for CjapOBP2 (Fig. 5B,C).
(§2) Figure 5 Affinity of CjapOBPs to candidate chemical ligands. (A) Both CjapOBP1 and CjapOBP2 bind the fluorescent probe 1-NPN, with dissociation constants of 3.3 μM and 2.1 μM, respectively. (B) Competitive binding curves of selected ligands to the two CjapOBPs. Mixtures of proteins (5 μM) and 1-NPN (2 μM) were titrated with 1mM solutions of the ligands in methanol. […] (C) The chemical structures of the chemicals applied.
(§3) To measure the affinity of the fluorescent ligand N-phenyl-1-naphthylamine (1-NPN), a 2 μM solution of the protein in 50 mM Tris-HCl (pH 7.4) was titrated with aliquots of 1 mM 1-NPN in methanol to final concentrations of 1–16 μM. The probe was excited at 337 nm, and emission spectra were recorded between 380 and 450 nm. The affinity of other ligands was measured in competitive binding assays, using the protein and the fluorescent reporter 1-NPN at the concentration of 5 μM and 2 μM respectively, while increasing the final concentration of each competitor up to 16 μM. Dissociation constants for 1-NPN were evaluated from Scatchard plots of the binding data, and other ligands were calculated from the corresponding IC50 values, using the equation: KD = [IC50]/1+[1-NPN]/K1-NPN, [1-NPN] being the free concentration of 1-NPN and K1-NPN being the dissociation constant of the complex protein/1-NPN.

For experiment [2], the target named is T2, CjapOBP1 (Cybister japonicus, UniProt A0A1Q1N696).
T2 sequence (A0A1Q1N696 17-136): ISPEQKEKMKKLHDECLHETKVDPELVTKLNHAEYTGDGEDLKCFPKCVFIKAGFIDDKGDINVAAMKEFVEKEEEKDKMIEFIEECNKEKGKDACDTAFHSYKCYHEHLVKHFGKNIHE
The experiment is described as above. Particulars: protein 5 μM, 1-NPN 2 μM, competitor up to 16 μM.
Excerpt: as §1, §2, §3

Experiment [3] deals with T2, CjapOBP1. The experiment can be described thus: Fluorescence binding assay, direct titration with 1-NPN. Particulars: recombinant CjapOBP1, 2 μM protein in 50 mM Tris-HCl pH 7.4, titrated with 1-NPN 1–16 μM; Scatchard plot; read-out: dissociation constant.
Excerpt: as §1, §2
(§4) To measure the affinity of the fluorescent ligand N-phenyl-1-naphthylamine (1-NPN), a 2 μM solution of the protein in 50 mM Tris-HCl (pH 7.4) was titrated with aliquots of 1 mM 1-NPN in methanol to final concentrations of 1–16 μM. […]

Experiment [4] concerns the target T1, CjapOBP2. The experiment is described as above. To be noted: recombinant CjapOBP2, 2 μM protein in 50 mM Tris-HCl pH 7.4, titrated with 1-NPN 1–16 μM; Scatchard plot; read-out: dissociation constant.
Excerpt: as §1, §2, §4

T1 sequence (A0A1Q1N694 entry or part of it): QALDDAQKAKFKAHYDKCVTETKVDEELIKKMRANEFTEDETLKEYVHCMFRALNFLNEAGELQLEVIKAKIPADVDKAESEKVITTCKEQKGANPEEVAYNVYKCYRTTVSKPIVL

On to `CO/C(C=O)=C\c1ccccc1` [α-methoxycinnamaldehyde], for which the “binding to CjapOBP2 (displacement of 1-NPN)” value (“binding to CjapOBP2” below) in experiment [1] is “did not show appreciable binding”. On to `CC(C)=CCCC(C)=CC=O` (mixture of isomers) [citral], for which, in experiment [2], the “binding to CjapOBP1 (displacement of 1-NPN)” value is “good ligand”. For `C=CCc1ccc(O)c(OC)c1` [eugenol], the “binding to CjapOBP2” value in experiment [1] was “did not show appreciable binding”.

As to `c1ccc(Nc2cccc3ccccc23)cc1` [1-NPN, N-phenyl-1-naphthylamine], the Kd in experiment [3] was determined as 3.3 µM; in experiment [4], 2.1 µM.

In the case of `COc1cc(CCC(=O)O)ccc1O` [dihydroferulic acid], in experiment [1], the “binding to CjapOBP2” value was “did not show appreciable binding”. The same measure, in the same setting: then `COc1cc(/C=C/C=O)ccc1O` [coniferyl aldehyde], with “good ligand”.
